Data published in the NIST ThermoML archive (doi:10.1016/j.jct.2018.12.008).

What was measured:
[1] = mn = molality of the nth substance listed, in mol/kg; details: 100 kPa, Liquid; for viscosity: Falling or rolling sphere viscometry; for electrical conductivity: Frequency=0.003 MHz, Alternating current cell with electrodes; for mass density: Vibrating tube method
[2] = 100 kPa, Liquid, Falling or rolling sphere viscometry

CCCCCC[n+]1ccc(C)cc1.[Br-] [1-hexyl-4-methylpyridinium bromide] + O
[1]
Details | electrical conductivity, 288.15 K [S/m] | electrical conductivity, 298.15 K [S/m] | electrical conductivity, 308.15 K [S/m] | mass density, 288.15 K [kg/m3] | mass density, 298.15 K [kg/m3] | mass density, 308.15 K [kg/m3] | viscosity, 288.15 K [mPa·s] | viscosity, 298.15 K [mPa·s] | viscosity, 308.15 K [mPa·s]
m1 = 0.0011 | – | – | – | 999.106 | 997.049 | 994.045 | 1.134 | 0.8886 | 0.721
m1 = 0.0018 | – | – | – | 999.113 | 997.053 | 994.051 | 1.135 | 0.8893 | 0.7216
m1 = 0.0021 | 0.0177 | 0.022 | 0.0266 | 999.119 | 997.057 | 994.054 | 1.135 | 0.889 | 0.722
m1 = 0.0036 | – | – | – | 999.129 | 997.069 | 994.067 | 1.136 | 0.8907 | 0.7231
m1 = 0.0043 | 0.0345 | 0.0431 | 0.0522 | 999.138 | 997.073 | 994.072 | 1.136 | 0.891 | 0.724
m1 = 0.0065 | 0.0512 | 0.0635 | 0.077 | 999.156 | 997.088 | 994.09 | 1.138 | 0.893 | 0.725

O [water] + CCCCCCCC[n+]1ccc(C)cc1.[Br-]
[1], m2 = 0
Details | electrical conductivity [S/m] | viscosity [mPa·s]
288.15 K | 0.000101 | 1.133
298.15 K | 0.00015 | 0.89
308.15 K | 0.000216 | 0.719

CCCC[n+]1ccc(C)cc1.[Br-] [1-butyl-4-methylpyridinium bromide] + O
[1]
Details | electrical conductivity, 288.15 K [S/m] | electrical conductivity, 298.15 K [S/m] | electrical conductivity, 308.15 K [S/m] | mass density, 288.15 K [kg/m3] | mass density, 298.15 K [kg/m3] | mass density, 308.15 K [kg/m3] | viscosity, 288.15 K [mPa·s] | viscosity, 298.15 K [mPa·s] | viscosity, 308.15 K [mPa·s]
m1 = 0.0011 | – | – | – | 999.126 | 997.066 | 994.057 | 1.135 | 0.8895 | 0.7239
m1 = 0.0018 | – | – | – | 999.138 | 997.081 | 994.066 | 1.137 | 0.8911 | 0.7267
m1 = 0.0021 | 0.0186 | 0.023 | 0.0278 | 999.139 | 997.093 | 994.069 | 1.137 | 0.891 | 0.727
m1 = 0.0036 | – | – | – | 999.163 | 997.131 | 994.087 | 1.14 | 0.894 | 0.7317
m1 = 0.0043 | 0.0358 | 0.0444 | 0.054 | 999.177 | 997.148 | 994.099 | 1.141 | 0.895 | 0.734
m1 = 0.0065 | 0.0536 | 0.0671 | 0.0809 | 999.217 | 997.205 | 994.13 | 1.146 | 0.9 | 0.742

CCCCCCCC[n+]1ccc(C)cc1.[Br-] [1-octyl-4-methylpyridinium bromide] + O
[1]
Details | electrical conductivity, 288.15 K [S/m] | electrical conductivity, 298.15 K [S/m] | electrical conductivity, 308.15 K [S/m] | mass density, 288.15 K [kg/m3] | mass density, 298.15 K [kg/m3] | mass density, 308.15 K [kg/m3] | viscosity, 288.15 K [mPa·s] | viscosity, 298.15 K [mPa·s] | viscosity, 308.15 K [mPa·s]
m1 = 0.0011 | – | – | – | 999.141 | 997.088 | 994.07 | 1.134 | 0.8878 | 0.7215
m1 = 0.0018 | – | – | – | 999.186 | 997.125 | 994.101 | 1.135 | 0.8882 | 0.7225
m1 = 0.0021 | 0.0176 | 0.0219 | 0.0265 | 999.196 | 997.135 | 994.115 | 1.136 | 0.891 | 0.727
m1 = 0.0036 | – | – | – | 999.266 | 997.199 | 994.174 | 1.136 | 0.8892 | 0.7255
m1 = 0.0043 | 0.0344 | 0.042 | 0.0517 | 999.3 | 997.233 | 994.42 | 1.138 | 0.892 | 0.731
m1 = 0.0065 | 0.051 | 0.0634 | 0.076 | 999.402 | 997.329 | 994.283 | 1.139 | 0.893 | 0.734

O [water] + CCCCCC[n+]1ccc(C)cc1.[Br-]
[1], m2 = 0
Details | electrical conductivity [S/m] | viscosity [mPa·s]
288.15 K | 0.000101 | 1.133
298.15 K | 0.00015 | 0.89
308.15 K | 0.000216 | 0.719

O [water]
[2]
Details | viscosity [mPa·s]
288.15 K | 1.133
298.15 K | 0.89
308.15 K | 0.719

O [water] + CCCC[n+]1ccc(C)cc1.[Br-]
[1], m2 = 0
Details | electrical conductivity [S/m] | viscosity [mPa·s]
288.15 K | 0.000101 | 1.133
298.15 K | 0.00015 | 0.89
308.15 K | 0.000216 | 0.719
